# In patent EP4775570A1, “CYP11A1 INHIBITOR, PREPARATION METHOD THEREFOR AND USE THEREOF” (Shenzhen Zhongge Biological Technology Co., Ltd., priority 2023, dated 2025):
# Target: T1, CYP11A1 (Homo sapiens, UniProt P05108)
# T1 construct: host or cells: NCI-H295R
# T1 sequence (P05108 40-521): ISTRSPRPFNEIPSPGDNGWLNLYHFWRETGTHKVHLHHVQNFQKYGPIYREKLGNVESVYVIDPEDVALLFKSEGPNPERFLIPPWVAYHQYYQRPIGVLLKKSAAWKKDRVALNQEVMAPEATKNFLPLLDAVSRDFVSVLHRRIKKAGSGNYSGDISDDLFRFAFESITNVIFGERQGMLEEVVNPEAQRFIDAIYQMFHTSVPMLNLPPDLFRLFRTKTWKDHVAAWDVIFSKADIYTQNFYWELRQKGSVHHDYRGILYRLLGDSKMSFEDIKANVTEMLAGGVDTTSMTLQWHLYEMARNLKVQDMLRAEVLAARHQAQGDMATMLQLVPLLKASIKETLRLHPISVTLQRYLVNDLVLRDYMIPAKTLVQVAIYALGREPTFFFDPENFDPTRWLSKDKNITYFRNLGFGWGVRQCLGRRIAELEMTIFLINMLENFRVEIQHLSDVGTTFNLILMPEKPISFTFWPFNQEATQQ
# Assay: NCI-H295R cellular pregnenolone biosynthesis inhibition assay (ELISA method)
# Type: cell-based
# Details: IC50, NCI-H295R cells, 3 days incubation, pregnenolone in cell supernatant by ELISA
# Experimental: The experiment aims to test the inhibitory effect of the compounds of the present disclosure on cellular pregnenolone biosynthesis, and to assess the inhibitory effect of the compounds on CYP11A1 target based on their IC50 values.
# NCI-H295R cells (MINGZHOUBIO, MZ-2138) cultured in NCI-H295R complete medium (MINGZHOUBIO, MCM-0399).
# Using culture medium, NCI-H295R cells were seeded into a new 384-well cell culture plate (Greiner, 781091) at a density of 5,000 cells per well, with 45µL of cell suspension per well. The test compounds were prepared by adding 5µL of compound solution at 10× concentration to each well, to a maximum final concentration of 10µM, followed by 3× serial dilution for 10 points, with a final DMSO concentration of 0.1%, centrifuging at 1,000 rpm for 1 minute at room temperature, and then incubating in a 5% CO2 cell incubator at 37°C for 3 days.
# Pregnenolone ELISA kit (Abnova, KA1912) was used for detecting the content of pregnenolone in the supernatant of cell culture. Before detection, the reagents were allowed to come back to room temperature for 1 hour. After taking out the 384-well plate, the cellular supernatant was pipetted and subjected to 5× dilution with the Assay Buffer provided in the kit. A working solution of competitive molecule and a washing solution in accordance with the instructions was prepared. 50µL of diluted cellular supernatant were pipetted into the 96-well plate provided in the ELISA kit, added with 100µL of working solution of competitive molecule per well and the plate was incubated at room temperature for 1.5 hours. After discarding the liquid, the plate was washed with 300µL of washing solution per well three times and dried. After adding 150 µL of substrate chromogenic solution per well, the plate was incubated at room temperature for 10-15 minutes. After adding 50 µL of termination solution per well, the plate was incubated at room temperature for 10-15 minutes and read for absorbance at 450nm with Envision HTS Multilabel Reader.
# The wells added with 1µM ODM-208 were defined as 100% inhibition (positive control), the wells containing DMSO at a final concentration of 0.1% were defined as 0% inhibition (negative control), and inhibitory ratio = (absorbance of tested sample - average absorbance of negative control)/(average absorbance of positive control - average absorbance of negative control)*100%. The data were subjected to four-parameter fitting using GraphPad Prism to calculate the IC50 values of the compounds.
row,Structure (SMILES),IC50 [nM]
1,CS(=O)(=O)N1CCC(COc2cc(F)c(CN3Cc4ccccc4C3)cc2C#N)CC1 [compound 30],< 100

# Same assay, conditions: NCI-H295R cells, 3 days incubation, pregnenolone in cell supernatant by ELISA; read-out: IC50
row,Structure (SMILES),IC50 [nM]
1,Cc1cc(CN2Cc3ccccc3C2)ccc1OCC1CCN(S(C)(=O)=O)CC1 [compound 11],< 100
2,CS(=O)(=O)N1CCC(COc2ccc(CN3Cc4ccccc4C3)cc2)CC1 [compound 10],< 100
3,COc1cc(CN2Cc3cccnc3C2)ccc1CCC1CCN(S(C)(=O)=O)CC1 [compound 62],100 to 300
4,CS(=O)(=O)N1CCC(CSc2ccc(CN3Cc4ccccc4C3)cc2F)CC1 [compound 43],100 to 300
5,COc1cc(CN2Cc3ccccc3C2)ccc1CCC1CCN(C(=O)C(F)(F)F)CC1 [compound 71],100 to 300
6,C=C(C)c1cc(CN2Cc3ccccc3C2)ccc1OCC1CCN(S(C)(=O)=O)CC1 [compound 27],100 to 300
7,CS(=O)(=O)N1CCC(CCc2ccc(CN3Cc4ccccc4C3)o2)CC1 [compound 83],> 300
8,Cn1c(CN2Cc3ccccc3C2)c(F)cc(C=CC2CCN(C(=O)OC(C)(C)C)CC2)c1=O [compound 103],100 to 300
9,CS(=O)(=O)N1CCC(CCc2cc(F)c(CN3Cc4ccccc4C3)[nH]c2=O)CC1 [compound 94],100 to 300
10,COc1cc(CN2Cc3ccccc3C2)ccc1CCC1CCS(=O)(=O)CC1 [compound 88],> 300
11,COc1cc(CN2Cc3ccccc3C2)ccc1CCC1CCN(S(=O)(=O)C2CC2)CC1 [compound 69],< 100
12,CC(C)c1cc(CN2Cc3ccccc3C2)ccc1OCC1CCN(S(C)(=O)=O)CC1 [compound 14],< 100
13,CS(=O)(=O)N1CCC(COc2ccc(CN3Cc4ccccc4C3)cc2F)CC1 [compound 15],< 100
14,COc1cc(CN2Cc3ccccc3C2)ccc1CCC1CCN(S(=O)(=O)c2cccs2)CC1 [compound 78],< 100
15,Cn1c(CN2Cc3ccccc3C2)c(F)cc(C(F)CC2CCN(S(C)(=O)=O)CC2)c1=O (stereo not drawn) [compound 124],< 100
16,CS(=O)(=O)N1CCC(COc2ccc(CN3Cc4ccccc4C3)cc2OC(F)(F)F)CC1 [compound 20],100 to 300
17,CS(=O)(=O)N1CCC(COc2cnc(CN3Cc4ccccc4C3)cn2)CC1 [compound 9],> 300
18,Cn1c(CN2Cc3ccccc3C2)c(F)cc(C(O)CC2CCN(C(=O)OC(C)(C)C)CC2)c1=O (stereo not drawn) [compound 122],< 100
19,OCCN1CCC(COc2cc(F)c(CN3Cc4ccccc4C3)cc2Br)CC1 [compound 55],> 300
20,CS(=O)(=O)N1CCC(COc2ccc(CN3Cc4ccccc4C3)nc2)CC1 [compound 8],> 300
21,COc1cc(CN2Cc3cccc(F)c3C2)c(F)cc1CCC1CCN(S(C)(=O)=O)CC1 [compound 66],< 100

row,Structure (SMILES),IC50 [nM]
1,Cn1cc(OCC2CCN(S(C)(=O)=O)CC2)c(=O)cc1CN1Cc2ccccc2C1 [compound 1],> 300
2,Cc1cc(CN2Cc3ccccc3C2)cc(F)c1OCC1CCN(S(C)(=O)=O)CC1 [compound 35],100 to 300
3,CS(=O)(=O)N1CCC(CCc2sc(CN3Cc4ccccc4C3)cc2C#N)CC1 [compound 96],> 300
4,C=CCOc1cc(CN2Cc3ccccc3C2)ccc1OCC1CCN(S(C)(=O)=O)CC1 [compound 29],< 100
5,CNC(=O)N1CCC(CCc2ccc(CN3Cc4ccccc4C3)cc2OC)CC1 [compound 79],< 100
6,CS(=O)(=O)N1CCC(CCc2cc(F)c(CN3Cc4ccccc4C3)cc2C#N)CC1 [compound 59],< 100
7,Cn1c(CN2Cc3ccccc3C2)c(F)cc(C(F)=CC2CCN(S(C)(=O)=O)CC2)c1=O [compound 123],< 100
8,CS(=O)(=O)N1CCC(CCc2ncc(CN3Cc4ccccc4C3)s2)CC1 [compound 86],100 to 300
9,COc1cc(CN2Cc3ccccc3C2)ccc1C=CC1CCN(C(=O)OC(C)(C)C)CC1 [compound 50],< 100
10,Cn1c(CN2Cc3ccccc3C2)c(F)cc(CCC2CCN(S(C)(=O)=O)CC2(C)C)c1=O (stereo not drawn) [compound 114],< 100
11,COc1nc(CN2Cc3ccccc3C2)ccc1CCC1CCN(S(C)(=O)=O)CC1 [compound 65],100 to 300
12,COc1cc(CN2Cc3ccccc3C2)ccc1CCC1CCN(S(=O)(=O)c2ccc(C)cc2)CC1 [compound 75],< 100
13,Cn1c(CN2Cc3ccccc3C2)c(F)cc(CCN2CCN(S(C)(=O)=O)CC2)c1=O [compound 118],100 to 300
14,CSc1cc(CN2Cc3ccccc3C2)c(F)cc1OCC1CCN(S(C)(=O)=O)CC1 [compound 33],< 100
15,COc1cc(CN2Cc3ccccc3C2)ccc1/C=C/C1CCN(S(C)(=O)=O)CC1 [compound 44],< 100
16,CC1CC(C#Cc2cc(F)c(CN3Cc4ccccc4C3)n(C)c2=O)CCN1C(=O)OC(C)(C)C (stereo not drawn) [compound 115],< 100
17,[2H]C([2H])(c1c(F)cc(CCC2CCN(C(=O)OC(C)(C)C)CC2)c(=O)n1C)N1Cc2ccccc2C1 [compound 121],< 100
18,C=C(C)c1cc(CN2Cc3ccccc3C2)c(F)cc1OCC1CCN(S(C)(=O)=O)CC1 [compound 28],< 100
19,Cn1c(CN2Cc3cccnc3C2)c(F)cc(CCC2CCN(S(C)(=O)=O)CC2)c1=O [compound 98],100 to 300
20,COc1cc(CN2Cc3ccccc3C2)ccc1C#CC1=CCS(=O)(=O)CC1 [compound 97],> 300
21,Cn1c(CN2Cc3ccccc3C2)c(F)cc(C(F)=CC2CCN(C(=O)OC(C)(C)C)CC2)c1=O [compound 128],100 to 300

row,Structure (SMILES),IC50 [nM]
1,CS(=O)(=O)N1CCC(C=Cc2ccc(CN3Cc4ccccc4C3)cc2C#N)CC1 [compound 60],< 100
2,CS(=O)(=O)N1CCC(CCOc2cc(CN3Cc4ccccc4C3)ccn2)CC1 [compound 6],> 300
3,CS(=O)(=O)N1CCC(COc2c(F)cc(CN3Cc4ccccc4C3)cc2Br)CC1 [compound 34],< 100
4,CC(c1c(F)cc(CCC2CCN(S(C)(=O)=O)CC2)c(=O)n1C)N1Cc2ccccc2C1 (stereo not drawn) [compound 102],< 100
5,Cn1c(CN2Cc3ccncc3C2)c(F)cc(CCC2CCN(S(C)(=O)=O)CC2)c1=O [compound 99],> 300
6,COc1cc(CN2Cc3ccccc3C2)c(F)cc1CCC1CCN(S(C)(=O)=O)CC1 [compound 41],100 to 300
7,COc1cc(CN2Cc3ccccc3C2)ccc1CCC1CCN(C(=O)CC#N)CC1 [compound 68],< 100
8,COC(=O)N1CCC(CCc2ccc(CN3Cc4ccccc4C3)cc2OC)CC1 [compound 80],< 100
9,CCn1c(CN2Cc3ccccc3C2)c(F)cc(CCC2CCN(S(C)(=O)=O)CC2)c1=O [compound 107],< 100
10,Cn1c(CN2Cc3ccccc3C2)c(F)cc(C=CC2CCN(S(=O)(=O)C3CC3)CC2)c1=O [compound 111],< 100
11,[2H]C(c1c(F)cc(CCC2CCN(S(C)(=O)=O)CC2)c(=O)n1C)N1Cc2ccccc2C1 (stereo not drawn) [compound 108],< 100
12,CC(C)(C)OC(=O)N1CCC(COc2cc(F)c(CN3Cc4ccccc4C3)cc2Br)CC1 [compound 46],< 100
13,CS(=O)(=O)N1CCC(COc2ccc(CN3Cc4ccccc4C3)cc2-c2ncco2)CC1 [compound 37],100 to 300
14,CS(=O)(=O)N1CCC(CCc2sc(CN3Cc4ccccc4C3)cc2Br)CC1 [compound 95],> 300
15,COc1cc(CN2Cc3ccccc3C2)ncc1OCC1CCN(S(C)(=O)=O)CC1 [compound 2],> 300
16,CS(=O)(=O)N1CCC2(CCN(c3ccc(CN4Cc5ccccc5C4)cc3F)CC2)C1 [compound 58],> 300
17,CS(=O)(=O)N1CCC(COc2cc(F)c(CN3Cc4ccccc4C3)cc2F)CC1 [compound 32],< 100
18,CC1CC(CCc2cc(F)c(CN3Cc4ccccc4C3)n(C)c2=O)CCN1S(C)(=O)=O (stereo not drawn) [compound 109],< 100
19,Cn1c(CN2Cc3ccccc3C2)ccc(CCC2CCN(S(C)(=O)=O)CC2)c1=O [compound 90],< 100
20,COc1cc(CN2Cc3ccccc3C2)ccc1C#CC1(O)CCN(S(C)(=O)=O)CC1 [compound 93],100 to 300
